Each molecule was assayed on gegen Progesteron-11α-bernsteinsäurehalbester-ovalbumin erzeugten Antiserum (assay: Cross-reactivity of steroids in the radioimmunoassay for progesterone (competitive binding, 125I-labelled progesterone-3 tracer, charcoal separation)). Details: relative to Progesteron = 100; acid buffer; heterologous system (11α-protein conjugate antiserum, 3-iodinated tracer).
Design: species or system Kaninchen
Description: Die vorliegende Erfindung stellt ein Radioimmunobesteck und eine Bestimmungsmethode für Progesteron zur Verfügung, welche dadurch gekennzeichnet ist, daß man in saurem Medium, vorzugsweise einem sauren Puffer, eine Flüssigkeitsprobe mit einer bekannten Menge von gegen ein Progesteron/Proteinkonjugat erzeugten Antikörpern, wobei das Protein über eine Brückengruppe in 11-Stellung, im allgemeinen 11α-Stellung, an das Progesteron gebunden ist, und mit einer bekannten Menge eines Progesteronderivats,das in 3-Stellung über eine Brücke mit einem Rest substituiert ist, welcher ein oder mehrere Atome eines Jodradioisotops trägt, inkubiert, . das in dem entstandenen Antikörper /Antigenkomplex gebundene Steroid von der freien Steroidkomnonente abtrennt und deren Radioaktivität oder die des Antikörper/Antigenkomplexes mißt. Im allgemeinen wird das Antiserum zuletzt zugesetzt, und der Indikator wird vorzugsweise zum Standard bzw. zur Probe gegeben.
Wie oben erwähnt ist die eigentliche Bestimmung eine herkömmliche radioimmunologische Bestimmung mit Bindungskonkurrenz, d.h. sie ist abhängig von der Konkurrenz zwischen unmarkiertem Progesteron und einem radiojodierten Progesteronderivat um die Bindungsstellen eines progesteronspezifischen Antikörpers. Der an den Antikörper gebundene Anteil an jodiertem Progesteron ist der Menge des vorhandenen unmarkierten Progesterons umgekehrt proportional. Dieser Anteil wird dadurch gemessen, daß man die gebundenen und freien Komponenten trennt, im allgemeinen durch Adsorption der letzteren, und die Radioaktivität der einen oder der anderen mißt.
Die bevorzugte Reagenzienkombination für die erfindungsgemäße Bestimmungsmethode besteht aus einem gegen Progesteron-11α-bernsteinsäurehalbester-ovalbumin erzeugten Antiserum und Progesteron-3-(0-carboxymethyl)-oxim-[^125J]-jodhistamin. J]-jodhistamin.
Die Bestimmung wird auf herkömmliche Weise durchgeführt, beispielsweise erstellt man einen Satz Röhrchen, die jeweils ein Aliquot an 3-jodiertem Indikator und entweder eine bekannte Menge einer Standardprogestercnlösung in einem geeigneten, von Steroid befreiten Verdünnungsmittel oder eine unbekannte Probe enthalten. Vorzugsweise gibt man den Indikator zum Standard oder zur Probe. Ein Aliquot des Antiserums wird in jedes Röhrchen gegeben, dessen Inhalt gut vermischt und stehengelassen wird, vorzugsweise bei 0 - 4°C. Die Bestimmung läßt sich jedoch auch bei höheren Temperaturen, z.B. Raumtemperatur oder 37°C, durchführen. Nach Ablauf einer gewissen Zeit, vorzugsweise 21/2 - 5 Stunden, wird jedem Röhrchen ein Aliquot eines Trennmittels zugesetzt. Das Trennmittel ist beispielsweise ein zweiter Antikörper oder (NH4)2S04, jedoch vorzugsweise Aktivkohle. Man läßt dem Trennmittel genügend Zeit, um das freie Steroid zu binden, trennt es vom Rest des Röhrcheninhalts, im Falle von Aktivkohle vorzugsweise durch Zentrifugieren, und bestimmt die Radioaktivität der festen oder flüssigen Phase. Im Falle von Aktivkohle als Adsorptionsmittel wird vorzugsweise die feste Phase, d.h. die Radioaktivität des freien (nichtantikörpergebundenen) jodierten Indikators gemessen.Andernfalls kann man eine Probe der überstehenden flüssigen Phase nehmen und zählen. Man erstellt eine Standardkurve, und die in der Probe vorliegende Menge Progesteron kann aus der Kurve interpoliert werden.
Die Kreuzreaktivität verschiedener Steroide bei der erfindungsgemäßen Bestimmungsmethode ist unten angegeben.

**Q.** How did the “% Kreuzreaktivität” value turn out when `C[C@H](O)[C@H]1CC[C@H]2[C@@H]3CC[C@@H]4C[C@H](O)CC[C@]4(C)[C@H]3CC[C@]12C` [5ß-Pregnan-3α, 20α-diol] was run?
**A.** The value was 0,7%.

**Q.** How did the “% Kreuzreaktivität” value turn out when `CC(=O)[C@H]1CC[C@H]2[C@@H]3CC[C@@H]4C[C@H](O)CC[C@]4(C)[C@H]3CC[C@]12C` [5ß-Pregnan-3α-01-20-on] was run?
**A.** The value was 8,0%.

**Q.** For `CC(=O)[C@H]1CC[C@H]2[C@@H]3CC[C@H]4CC(=O)CC[C@]4(C)[C@H]3CC[C@]12C` [5α-Pregnan-3,20-dion], which “% Kreuzreaktivität” value is on record?
**A.** The value was 6,0%.

**Q.** For `CC(=O)[C@@]1(O)CC[C@H]2[C@@H]3CCC4=CC(=O)CC[C@]4(C)[C@H]3CC[C@@]21C` [17α-Hydroxyprogesteron], which “% Kreuzreaktivität” value is on record?
**A.** Its value is 1,3%.

**Q.** How did the “% Kreuzreaktivität” value turn out when `C[C@H](O)[C@H]1CC[C@H]2[C@@H]3CCC4=CC(=O)CC[C@]4(C)[C@H]3CC[C@]12C` [20α-Hydroxyprogesteron] was run?
**A.** Its value is 0,25%.

**Q.** Which “% Kreuzreaktivität” value does the source give for `C[C@]12C[C@H](O)[C@H]3[C@@H](CCC4=CC(=O)CC[C@@]43C)[C@@H]1CC[C@@H]2C(=O)CO` [Corticosteron] here?
**A.** Its value is 2,7%.

**Q.** For `C[C@]12CC[C@H]3[C@@H](CCC4=CC(=O)CC[C@@]43C)[C@@H]1CC[C@@H]2C(=O)CO` [Desoxycorticosteron], which “% Kreuzreaktivität” value is on record?
**A.** Its value is 0,01%.

**Q.** With `CC(=O)[C@H]1CC[C@H]2[C@@H]3CC=C4C[C@@H](O)CC[C@]4(C)[C@H]3CC[C@]12C` [Pregnenolon] as the molecule, how does the “% Kreuzreaktivität” value read?
**A.** The value was 10,5%.

**Q.** `CC(=O)[C@H]1CC[C@H]2[C@@H]3CC=C4C[C@@H](O[C@@H]5O[C@H](C(=O)O)[C@@H](O)[C@H](O)[C@H]5O)CC[C@]4(C)[C@H]3CC[C@]12C` [Pregnenolonglucuronid] was tested. Which “% Kreuzreaktivität” value did it give?
**A.** The value was 10,0%.

**Q.** `CC(=O)[C@H]1CC[C@H]2[C@@H]3CC=C4C[C@@H](OS(=O)(=O)O)CC[C@]4(C)[C@H]3CC[C@]12C` [Pregnenolonsulfat] was tested. Which “% Kreuzreaktivität” value did it give?
**A.** Its value is 0,4%.

**Q.** How did the “% Kreuzreaktivität” value turn out when `CC(=O)[C@H]1CC[C@H]2[C@@H]3CCC4=CC(=O)CC[C@]4(C)[C@H]3CC[C@]12C` [Progesteron] was run?
**A.** Its value is 100%.

— patent publication EP0031926A2, “Radioimmunological set for the determination of progesterone and its use, and radioimmunoassay method for the determination of progesterone” (HOECHST AKTIENGESELLSCHAFT, priority 1979, dated 1981)
